Drawing on US7351742B2, “Sulfonamide derivatives for the treatment of diseases” (Pfizer Inc., priority 2004, dated 2008), this text covers EC50 for 15 compounds.

The term EC50 denotes the midpoint of the concentration-response curve.

T1 sequence (P07550 whole entry): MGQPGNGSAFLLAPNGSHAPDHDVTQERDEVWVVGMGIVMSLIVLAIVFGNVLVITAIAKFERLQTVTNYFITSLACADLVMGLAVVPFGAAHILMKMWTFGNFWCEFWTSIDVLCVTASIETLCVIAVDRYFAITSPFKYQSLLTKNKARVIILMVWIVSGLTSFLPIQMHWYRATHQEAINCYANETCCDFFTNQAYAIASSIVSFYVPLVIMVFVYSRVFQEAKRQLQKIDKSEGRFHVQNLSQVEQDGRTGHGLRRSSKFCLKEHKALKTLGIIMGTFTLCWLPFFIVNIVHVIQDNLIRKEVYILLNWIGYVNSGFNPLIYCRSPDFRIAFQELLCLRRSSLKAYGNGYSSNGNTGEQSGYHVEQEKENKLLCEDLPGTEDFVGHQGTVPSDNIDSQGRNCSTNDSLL

The assay addresses T1, human β2 adrenergic receptor (Homo sapiens, UniProt P07550).
T1 construct: expressed in transfected cells; host or cells: CHO (Chinese Hamster Ovary) cells, CHOhβ2
The assay can be described thus: β2 cAMP EC50 in CHO cells recombinantly expressing the human β2 adrenergic receptor (cAMP-Flashplate). The assay is classed as cell-based. The conditions noted are these: CHOhβ2 cells, 1 hour incubation. As to the method:
According to another alternative, the agonist potency for the β2 receptor of the compounds of the formula (1) may also be determined by the measure of the concentration of compound according to the present invention required to produce half maximal effect (EC50) for the β2 receptor.
10 mM/100% DMSO (dimethylsulfoxide) stock of compound is diluted to required top dose in 4% DMSO. This top dose is used to construct a 10-point semi-log dilution curve, all in 4% DMSO. Isoprenaline (Sigma, 1-5627) was used as a standard in every experiment and for control wells on each plate. Data was expressed as % Isoprenaline response.
CHO (Chinese Hamster Ovary) cells recombinantly expressing the human β2 adrenergic receptor (from Kobilka et al., PNAS 84: 46-50, 1987 and Bouvier et al., Mol Pharmacol 33: 133-139 1988 CHOhβ2) were grown in Dulbeccos MEM/NUT MIX F12 (Gibco, 21331-020) supplemented with 10% foetal bovine serum (Sigma, F4135, Lot 90K8404 Exp 09/04), 2 mM glutamine (Sigma, G7513), 500 μg/ml geneticin (Sigma, G7034) and 10 μg/ml puromycin (Sigma, P8833). Cells were seeded to give about 90% confluency for testing.
25 μl/well each dose of compound was transferred into a cAMP-Flashplate® (NEN, SMP004B), with […] as basal controls and 100 nM Isoprenaline as max controls. This was diluted 1:2 by the addition of 25 μl/well PBS. Cells were trypsinised (0.25% Sigma, T4049), washed with PBS (Gibco, 14040-174) and resuspended in stimulation buffer (NEN, SMP004B) to give 1×10^6 cells/ml CHOhB2. Compounds were incubated with 50 μl/well cells for 1 hour. Cells were then lysed by the addition of 100 μl/well detection buffer (NEN, SMP004B) containing 0.18 μCi/ml ^125I-cAMP (NEN, NEX-130) and plates were incubated at room temperature for a further 2 hours. The amount of ^125I-cAMP bound to the Flashplate® was quantified using a Topcount NXT (Packard), normal counting efficiency for 1 minute. Dose-response data was expressed as % Isoprenaline activity and fitted using a four parameter sigmoid fit.
As to `CC(C)(Cc1cccc(CC(=O)NCc2ccccc2)c1)NC[C@H](O)c1ccc(O)c(NS(C)(=O)=O)c1` [Example 1, N-Benzyl-2-(3-{2-[((2R)-2-hydroxy-2-{4-hydroxy-3-[(methylsulfonyl)amino]phenyl}ethyl)amino]-2-methylpropyl}phenyl)acetamide], the EC50 came to 0.02 nM.

In the case of `COc1ccc(CNC(=O)Cc2cccc(CC(C)(C)NC[C@H](O)c3ccc(O)c(NS(C)(=O)=O)c3)c2)cc1` [Example 2, 2-(3-{2-[((2R)-2-hydroxy-2-{4-hydroxy-3-[(methylsulfonyl)amino]phenyl}ethyl)amino]-2-methylpropyl}phenyl)-N-(4-methoxybenzyl)acetamide], the EC50 was determined as 0.03 nM.

As to `Cc1ccc(CNC(=O)Cc2cccc(CC(C)(C)NC[C@H](O)c3ccc(O)c(NS(C)(=O)=O)c3)c2)cc1` [Example 6, 2-(3-{2-[((2R)-2-hydroxy-2-{4-hydroxy-3-[(methylsulfonyl)amino]phenyl}ethyl)amino]-2-methylpropyl}phenyl)-N-(4-methylbenzyl)acetamide], the EC50 turned out to be 0.07 nM.

For the compound `CC(C)(Cc1cccc(CC(=O)NCc2ccc(Cl)cc2)c1)NC[C@H](O)c1ccc(O)c(NS(C)(=O)=O)c1` [Example 12, N-(4-Chlorobenzyl)-2-(3-{2-[((2R)-2-hydroxy-2-{4-hydroxy-3-[(methylsulfonyl)amino]phenyl}ethyl)amino]-2-methylpropyl}phenyl)acetamide], the EC50 was found to be 0.05 nM.

On to `CC(C)(Cc1cccc(CC(=O)NCc2ccc(F)cc2)c1)NC[C@H](O)c1ccc(O)c(NS(C)(=O)=O)c1` [Example 15, N-(4-Fluorobenzyl)-2-(3-{2-[((2R)-2-hydroxy-2-{4-hydroxy-3-[(methylsulfonyl)amino]phenyl}ethyl)amino]-2-methylpropyl}phenyl)acetamide], for which the EC50 stood at 0.03 nM.

Turning to `CC(C)(Cc1cccc(CC(=O)NCc2ccc(Cl)c(Cl)c2)c1)NC[C@H](O)c1ccc(O)c(NS(C)(=O)=O)c1` [Example 17, N-(3,4-Dichlorobenzyl)-2-(3-{2-[((2R)-2-hydroxy-2-{4-hydroxy-3-[(methylsulfonyl)amino]phenyl}ethyl)amino]-2-methylpropyl}phenyl)acetamide], the half-maximal effective concentration (EC50) is 0.08 nM.

For `CC(C)(Cc1cccc(CC(=O)NCCc2ccccc2)c1)NC[C@H](O)c1ccc(O)c(NS(C)(=O)=O)c1` [Example 25, 2-(3-{2-[((2R)-2-Hydroxy-2-{4-hydroxy-3-[(methylsulfonyl)amino]phenyl}ethyl)amino]-2-methylpropyl}phenyl)-N-(2-phenylethyl)acetamide], the 50% effective concentration (EC50) came out at 0.08 nM.

For the compound `CC(C)(Cc1cccc(CC(=O)NCCCc2ccccc2)c1)NC[C@H](O)c1ccc(O)c(NS(C)(=O)=O)c1` [Example 26, 2-(3-{2-[((2R)-2-Hydroxy-2-{4-hydroxy-3-[(methylsulfonyl)amino]phenyl}ethyl)amino]-2-methylpropyl}phenyl)-N-(3-phenylpropyl)acetamide], the EC50 amounted to 0.09 nM.

For the compound `CSc1ccccc1CNC(=O)Cc1cccc(CC(C)(C)NC[C@H](O)c2ccc(O)c(NS(C)(=O)=O)c2)c1` [Example 31, 2-(3-{2-[((2R)-2-Hydroxy-2-{4-hydroxy-3-[(methylsulfonyl)amino]phenyl}ethyl)amino]-2-methylpropyl}phenyl)-N-[2-(methylthio)benzyl]acetamide], the EC50 amounted to 0.04 nM.

On to `Cc1ccc(CNC(=O)Cc2cccc(C[C@@H](C)NC[C@H](O)c3ccc(O)c(NS(C)(=O)=O)c3)c2)cc1C` [Example 38, N-(3,4-Dimethylbenzyl)-2-(3-{(2R)-2-[((2R)-2-hydroxy-2-{4-hydroxy-3-[(methylsulfonyl)amino]phenyl}ethyl)amino]propyl}phenyl)acetamide], for which the concentration giving a half-maximal response (EC50) was 0.06 nM.

`C[C@H](Cc1cccc(CC(=O)NCc2ccc(Cl)c(Cl)c2)c1)NC[C@H](O)c1ccc(O)c(NS(C)(=O)=O)c1` [Example 39, N-(3,4-Dichlorobenzyl)-2-(3-{(2R)-2-[((2R)-2-hydroxy-2-{4-hydroxy-3-[(methylsulfonyl)amino]phenyl}ethyl)amino]propyl}phenyl)acetamide]: the EC50 is 0.05 nM.

As for `C[C@H](Cc1cccc(CC(=O)NCc2ccc(C(F)(F)F)cc2)c1)NC[C@H](O)c1ccc(O)c(NS(C)(=O)=O)c1` [Example 45, 2-(3-{(2R)-2-[((2R)-2-Hydroxy-2-{4-hydroxy-3-[(methylsulfonyl)amino]phenyl}ethyl)amino]propyl}phenyl)-N-[4-(trifluoromethyl)benzyl]acetamide], the half-maximal effective concentration (EC50) is 0.06 nM.

Consider `C[C@H](Cc1cccc(CC(=O)NCc2ccccn2)c1)NC[C@H](O)c1ccc(O)c(NS(C)(=O)=O)c1` [Example 60, 2-(3-{(2R)-2-[((2R)-2-Hydroxy-2-{4-hydroxy-3-[(methylsulfonyl)amino]phenyl}ethyl)amino]propyl}phenyl)-N-(pyridin-2-ylmethyl)acetamide], for which the EC50 came to 0.02 nM.

As for `CC(C)(Cc1ccc(CC(=O)NCc2cc(C(F)(F)F)ccc2Cl)cc1)NC[C@H](O)c1ccc(O)c(NS(C)(=O)=O)c1` [Example 67, N-[2-Chloro-5-(trifluoromethyl)benzyl]-2-(4-{2-[((2R)-2-hydroxy-2-{4-hydroxy-3-[(methylsulfonyl)amino]phenyl}ethyl)amino]-2-methylpropyl}phenyl)acetamide], the EC50 was 0.08 nM.

As to `C[C@H](Cc1ccc(CC(=O)NCc2ccccc2)cc1)NC[C@H](O)c1ccc(O)c(NS(C)(=O)=O)c1` [Example 76, N-Benzyl-2-(4-{(2R)-2-[((2R)-2-hydroxy-2-{4-hydroxy-3-[(methylsulfonyl)amino]phenyl}ethyl)amino]propyl}phenyl)acetamide], the EC50 was 0.02 nM.
